Consider 3 molecules from ChEMBL document CHEMBL2321872, “Synthesis and antimycobacterial activity of 2,1'-dihydropyridomycins” (ACS Med Chem Lett, 2013).

Converted amounts (≈) assume the structure as drawn.

This assay deals with Mycobacterium tuberculosis. Kind of assay: Antimycobacterial activity against Mycobacterium tuberculosis H37Rv assessed as growth inhibition after 7 days by resazurin method. The note with it: 168 h. The assay is classed as functional. In general terms: Resazurin is reduced to fluorescent resorufin, in cell work by metabolically active cells.
For orientation: MIC means the smallest concentration in the dilution series that meets the test's criterion for growth inhibition. Regarding `CC(C)[C@H]1OC(=O)[C@H](C)[C@H](O)[C@H](Cc2cccnc2)NC(=O)[C@@H](NC(=O)c2ncccc2O)[C@@H](C)OC1=O`, the MIC was 1.56 µg/mL (≈ 2.95 µM).
Next, `CC(C)[C@@H]1OC(=O)[C@H](C)[C@H](O)[C@H](Cc2cccnc2)NC(=O)[C@@H](NC(=O)c2ncccc2O)[C@@H](C)OC1=O`: 12.5 µg/mL (≈ 23.6 µM).
With `CC/C(C)=C1\OC(=O)[C@H](C)[C@H](O)[C@H](Cc2cccnc2)NC(=O)[C@@H](NC(=O)c2ncccc2O)[C@@H](C)OC1=O` [PYRIDOMYCIN], the MIC worked out at 0.39 µg/mL (≈ 0.721 µM).
